Experimental data reported in patent US20050288347A1, “Certain triazole-based compounds, compositions, and uses thereof” (priority 2004, published 2005).
“Also recorded” adds a separate entry of the source.

Molecular target: protein kinase
Assay: HTS ATP-utilizing enzyme assay, off-chip mobility-shift format (Caliper HTS 250)
Type: biochemical, human
Details: kinase(s) for which the compound exhibits protein kinase inhibitory activity; test compound 10 μM; active = greater than three-sigma from the mean activity of inactive compounds
How it was run: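 Single-point screen at 10 μM compound in HEPES pH 7.5 buffer with Triton X-100 and BSA, 2.5 h at 20–22 °C. Substrate-to-phosphopeptide ratio measured by off-chip microfluidic mobility shift; EDTA wells as 100% and DMSO wells as 0% control, hits called at three-sigma limits.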

Row | Kinase | SMILES
1 | ABL1 | COc1ccc(-n2c(S)nnc2-c2cccnc2)cc1 [4-(4-methoxyphenyl)-5-(pyridin-3-yl)-4H-1,2,4-triazole-3-thiol]
2 | CDK5 and CDK2-cyclinA and CDK2-cyclinE | Cn1c(S)nnc1-c1ccc(O)cc1 [4-(5-mercapto-4-methyl-4H-1,2,4-triazol-3-yl)phenol]

The next lines start with the molecule.

Row | SMILES | Kinase
3 | Nc1c(Cl)cc(-n2c(S)nnc2-c2ccccc2)cc1Cl [4-(4-amino-3,5-dichlorophenyl)-5-phenyl-4H-1,2,4-triazole-3-thiol] | GSK3-β; also recorded: GSK3-α; also recorded: CDK2-cyclinE
4 | COc1ccc(-n2c(C)nnc2S)cc1 [4-(4-methoxyphenyl)-5-methyl-4H-1,2,4-triazole-3-thiol] | AURORA-A
5 | COc1ccc(-n2c(S)nnc2-c2ccc(O)cc2)cc1 [4-(5-mercapto-4-(4-methoxyphenyl)-4H-1,2,4-triazol-3-yl)phenol] | CDK5 and GSK3-β and GSK3-α
6 | Oc1ccc(-c2nnc(S)n2-c2ccccc2)cc1 [4-(5-mercapto-4-phenyl-4H-1,2,4-triazol-3-yl)phenol] | CDK5 and GSK3-α and CDK2-cyclinA

Same assay, conditions: test compound 10 μM; active = activity greater than three-sigma from the mean of the predominately inactive population for that enzyme

Row | protein kinase against which the compound exhibits inhibitory activity (Table 3) | SMILES
7 | GSK3-β and GSK3-α and LYNA | Oc1ccc(-c2nnc(SCc3ccccc3)n2Cc2ccccc2)cc1 [4-(4-benzyl-5-(benzylthio)-4H-1,2,4-triazol-3-yl)phenol]
8 | GSK3-α; also recorded: GSK3-β | CSc1nnc(-c2ccc(O)cc2)n1Cc1ccccc1 [4-(4-benzyl-5-(methylthio)-4H-1,2,4-triazol-3-yl)phenol]
9 | GSK3-β; also recorded: AURORA-A | Cn1c(SCc2c(F)cccc2Cl)nnc1-c1ccncc1 [4-(5-(2-chloro-6-fluorobenzylthio)-4-methyl-4H-1,2,4-triazol-3-yl)pyridine]
10 | CHEK2 | CCn1c(SCc2ccccc2Cl)nnc1-c1cc(-c2ccccc2)nc2ccccc12 [4-(5-(2-chlorobenzylthio)-4-ethyl-4H-1,2,4-triazol-3-yl)-2-phenylquinoline]
11 | PKA and AURORA-A and MSK2 | CCn1c(SCc2ccc(Cl)cc2)nnc1-c1ccncc1 [4-(5-(4-chlorobenzylthio)-4-ethyl-4H-1,2,4-triazol-3-yl)pyridine]
12 | AURORA-A and MSK1 | Cn1c(SCc2ccc(Cl)cc2)nnc1-c1ccncc1 [4-(5-(4-chlorobenzylthio)-4-methyl-4H-1,2,4-triazol-3-yl)pyridine]
13 | AURORA-A and PKA and MSK1 | Clc1ccc(CSc2nnc(-c3ccncc3)n2-c2ccccc2)cc1 [4-(5-(4-chlorobenzylthio)-4-phenyl-4H-1,2,4-triazol-3-yl)pyridine]
14 | AURORA-A | Cc1ccc(CSc2nnc(-c3ccncc3)n2-c2ccccc2)cc1 [4-(5-(4-methylbenzylthio)-4-phenyl-4H-1,2,4-triazol-3-yl)pyridine]
15 | GSK3-β and GSK3-α and MSK2 | Oc1ccc(-c2nnc(SCc3ccccc3)n2Cc2ccco2)cc1 [4-(5-(benzylthio)-4-(furan-2-ylmethyl)-4H-1,2,4-triazol-3-yl)phenol]
16 | AURORA-A | Cn1c(SCc2ccccc2)nnc1-c1ccncc1 [4-(5-(benzylthio)-4-methyl-4H-1,2,4-triazol-3-yl)pyridine]
17 | AURORA-A | c1ccc(CSc2nnc(-c3ccncc3)n2-c2ccccc2)cc1 [4-(5-(benzylthio)-4-phenyl-4H-1,2,4-triazol-3-yl)pyridine]
18 | AURORA-A | CCSc1nnc(-c2ccncc2)n1CCCOC [4-(5-(ethylthio)-4-(3-methoxypropyl)-4H-1,2,4-triazol-3-yl)pyridine]
19 | AURORA-A | CCC(c1ccccc1)c1nnc(SCc2ccc(C(=O)O)cc2)[nH]1 (centres unmarked) [4-((5-(1-phenylpropyl)-4H-1,2,4-triazol-3-ylthio)methyl)benzoic acid]
20 | FLT-3; also recorded: GSK3-β | Clc1ccc(-c2nnc(SCc3ccncc3)[nH]2)cc1Cl [4-((5-(3,4-dichlorophenyl)-4H-1,2,4-triazol-3-ylthio)methyl)pyridine]

The next lines start with the molecule.

Row | SMILES | protein kinase against which the compound exhibits inhibitory activity (Table 3)
21 | CCSc1nnc(-c2ccc(O)cc2)n1Cc1ccccc1 [4-(4-benzyl-5-(ethylthio)-4H-1,2,4-triazol-3-yl)phenol] | GSK3-β; also recorded: GSK3-α
22 | Cn1c(SCc2ccccn2)nnc1-c1ccc(O)cc1 [4-(4-methyl-5-(pyridin-2-ylmethylthio)-4H-1,2,4-triazol-3-yl)phenol] | GSK3-β; also recorded: GSK3-α
23 | CCn1c(SCc2ccccc2Br)nnc1-c1cc(-c2ccccc2)nc2ccccc12 [4-(5-(2-bromobenzylthio)-4-ethyl-4H-1,2,4-triazol-3-yl)-2-phenylquinoline] | CHEK2
24 | Oc1ccc(-c2nnc(SCCN3CCOCC3)n2-c2ccccc2)cc1 [4-(5-(2-morpholinoethylthio)-4-phenyl-4H-1,2,4-triazol-3-yl)phenol] | GSK3-α
25 | CCn1c(SCc2ccc(Cl)cc2)nnc1-c1ccc(O)cc1 [4-(5-(4-chlorobenzylthio)-4-ethyl-4H-1,2,4-triazol-3-yl)phenol] | MSK2 and GSK3-β and MSK1
26 | CCn1c(SCc2ccc(C(C)(C)C)cc2)nnc1-c1ccncc1 [4-(5-(4-tert-butylbenzylthio)-4-ethyl-4H-1,2,4-triazol-3-yl)pyridine] | MAPKAPK-2
27 | Clc1cccc(-n2c(SCc3ccccc3)nnc2-c2ccncc2)c1 [4-(5-(benzylthio)-4-(3-chlorophenyl)-4H-1,2,4-triazol-3-yl)pyridine] | GSK3-β and AURORA-A and CDK1
28 | Cn1c(SCc2ccccc2)nnc1-c1ccc(O)cc1 [4-(5-(benzylthio)-4-methyl-4H-1,2,4-triazol-3-yl)phenol] | GSK3-β and GSK3-α and MSK1
29 | CSc1nnc(-c2ccc(O)cc2)n1-c1ccccc1 [4-(5-(methylthio)-4-phenyl-4H-1,2,4-triazol-3-yl)phenol] | GSK3-β; also recorded: GSK3-α; also recorded: CDK2-cyclinA
30 | O=C(O)c1ccc(CSc2nnc(-c3cccc(Cl)c3)[nH]2)cc1 [4-((5-(3-chlorophenyl)-4H-1,2,4-triazol-3-ylthio)methyl)benzoic acid] | FLT-3; also recorded: DYRK2; also recorded: AURORA-A
31 | FC(F)(F)Oc1ccc(-c2nnc(SCc3ccncc3)[nH]2)cc1 [4-((5-(4-(trifluoromethoxy)phenyl)-4H-1,2,4-triazol-3-ylthio)methyl)pyridine] | FLT-3; also recorded: c-TAK1; also recorded: GSK3-β
32 | COc1ccc(-c2nnc(SCc3ccncc3)[nH]2)cc1 [4-((5-(4-methoxyphenyl)-4H-1,2,4-triazol-3-ylthio)methyl)pyridine] | FLT-3; also recorded: DYRK2; also recorded: GSK3-α
